Laboratory results: patent publication US10336739B2, “4-hydroxy-3-(heteroaryl)pyridine-2-one APJ agonists” (BRISTOL-MYERS SQUIBB COMPANY, priority 2015, dated 2019)
Where two headings read alike, the source gives them in different places.

Biological target: human APJ receptor (Homo sapiens (Human), UniProt P35414)
Assay: Intracellular cAMP accumulation assay (APJ hcAMP, HTRF)
Type: cell-based
Conditions: HEK293 cells stably expressing human APJ receptor, inhibition of forskolin-mediated cAMP production
How it was run: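 cAMP inhibition was quantified by HTRF against a cAMP standard curve, with EC50 fitted to a variable-slope sigmoidal curve. Compounds acted on 5,000 APJ-stable HEK293 cells for 30 minutes at room temperature alongside 2 μM forskolin and […] IBMX. Detection reagents were incubated 60 min.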

[1] = read-out: Human APJ cAMP EC50 Potency range
[2] = read-out: hAPJ cAMP EC50 Potency range
[3] = read-out: hAPJ cAMP EC50 (nM) Potency range

Sequence of human APJ receptor (P35414 whole entry): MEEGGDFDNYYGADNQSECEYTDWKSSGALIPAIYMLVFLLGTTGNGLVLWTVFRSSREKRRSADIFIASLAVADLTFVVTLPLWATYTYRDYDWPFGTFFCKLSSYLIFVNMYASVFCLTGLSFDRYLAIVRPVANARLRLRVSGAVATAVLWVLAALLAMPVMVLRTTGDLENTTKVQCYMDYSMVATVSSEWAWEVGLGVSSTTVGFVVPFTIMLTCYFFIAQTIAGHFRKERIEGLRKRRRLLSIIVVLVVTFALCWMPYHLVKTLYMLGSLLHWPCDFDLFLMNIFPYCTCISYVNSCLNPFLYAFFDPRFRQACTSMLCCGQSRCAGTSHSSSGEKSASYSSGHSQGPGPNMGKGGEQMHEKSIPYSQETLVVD

| SMILES | EC50 [2] | other results |
| --- | --- | --- |
| CCOCc1nc(O)c(-c2nnc(Cc3ccc(Cl)cc3)o2)c(O)c1-c1c(O)cccc1OC (single isomer, unassigned) [Example 223, 3-{5-[(4-chlorophenyl)methyl]-1,3,4-oxadiazol-2-yl}-6-(ethoxymethyl)-5-(2-hydroxy-6-methoxyphenyl)pyridine-2,4-diol] | – | EC50 [1]: 10 to 100 nM |
| CCCCc1nc(O)c(-c2nnc(Cc3nnc(-c4ccccn4)o3)o2)c(O)c1-c1c(OC)cccc1OC [Example 207, 6-butyl-5-(2,6-dimethoxyphenyl)-3-(5-{[5-(pyridin-2-yl)-1,3,4-oxadiazol-2-yl]methyl}-1,3,4-oxadiazol-2-yl)pyridine-2,4-diol] | 0.01 to 10 nM | – |
| CCOCc1nc(O)c(-c2nnc(Cc3ccc(Cl)cn3)s2)c(O)c1-c1c(OC)cccc1OC [Example 232, 3-{5-[(5-chloropyridin-2-yl)methyl]-1,3,4-thiadiazol-2-yl}-5-(2,6-dimethoxyphenyl)-6-(ethoxymethyl) pyridine-2,4-diol] | – | EC50 [3]: 0.01 to 10 nM |
| CCOCc1nc(O)c(-c2nnc(CNC(=O)c3ccccn3)s2)c(O)c1-c1c(OC)cccc1OC [Example 235, N-({5-[5-(2,6-dimethoxyphenyl)-6-(ethoxymethyl)-2,4-dihydroxypyridin-3-yl]-1,3,4-thiadiazol-2-yl}methyl) pyridine-2-carboxamide] | – | EC50 [3]: 10 to 100 nM |
| CCCCNC(=O)Cc1nnc(-c2c(O)nc(CCCC)c(-c3c(OC)cccc3OC)c2O)o1 [Example 197, N-butyl-2-{5-[6-butyl-5-(2,6-dimethoxyphenyl)-2,4-dihydroxypyridin-3-yl]-1,3,4-oxadiazol-2-yl}acetamide] | 0.01 to 10 nM | – |
| CCCCc1nc(O)c(-c2nnc(C(C)(C)Cc3ccccc3)o2)c(O)c1-c1c(OC)cccc1OC [Example 64, 6-butyl-5-(2,6-dimethoxyphenyl)-3-[5-(2-methyl-1-phenylpropan-2-yl)-1,3,4-oxadiazol-2-yl]pyridine-2,4-diol] | 0.01 to 10 nM | – |
| CCCCc1nc(O)c(-c2nnc(Cc3nnc(Cc4ccccc4)o3)o2)c(O)c1-c1c(OC)cccc1OC [Example 209, 3-{5-[(5-benzyl-1,3,4-oxadiazol-2-yl)methyl]-1,3,4-oxadiazol-2-yl}-6-butyl-5-(2,6-dimethoxyphenyl) pyridine-2,4-diol] | 0.01 to 10 nM | – |
| CCCCc1nc(O)c(-c2nnc(Cc3ncc(Cl)cc3F)o2)c(O)c1-c1c(OC)cccc1OC [Example 236, 6-butyl-3-{5-[(5-chloro-3-fluoropyridin-2-yl)methyl]-1,3,4-oxadiazol-2-yl}-5-(2,6-dimethoxyphenyl) pyridine-2,4-diol] | – | EC50 (hAPJ cAMP EC50 (nM) Potency range): 10 to 100 nM |
| CCCCc1nc(O)c(-c2nnc(CC(=O)NCc3ccncc3)o2)c(O)c1-c1c(OC)cccc1OC [Example 268, 2-{5-[6-butyl-5-(2,6-dimethoxyphenyl)-2,4-dihydroxy-pyridin-3-yl]-1,3,4-oxadiazol-2-yl}-N-[(pyridin-4-yl)methyl] acetamide] | – | EC50 [3]: 0.01 to 10 nM |
| CCCCc1nc(O)c(-c2nnc(CC(=O)NCc3nc4ccccc4s3)o2)c(O)c1-c1c(OC)cccc1OC [Example 254, N-[(1,3-benzothiazol-2-yl)methyl]-2-{5-[6-butyl-5-(2,6-dimethoxyphenyl)-2,4-dihydroxypyridin-3-yl]-1,3,4-oxadiazol-2-yl}acetamide] | – | EC50 [3]: 0.01 to 10 nM |
| CCCCc1nc(O)c(-c2nnc(CC(=O)N(C)Cc3ccccc3)o2)c(O)c1-c1c(OC)cccc1OC [Example 260, N-benzyl-2-{5-[6-butyl-5-(2,6-dimethoxyphenyl)-2,4-dihydroxy-pyridin-3-yl]-1,3,4-oxadiazol-2-yl}-N-methylacetamide] | – | EC50 [3]: 0.01 to 10 nM |
| CCCCc1nc(O)c(-c2nnc(CC(=O)N(CC)CC)o2)c(O)c1-c1c(OC)cccc1OC [Example 177, 2-{5-[6-butyl-5-(2,6-dimethoxyphenyl)-2,4-dihydroxypyridin-3-yl]-1,3,4-oxadiazol-2-yl}-N,N-diethylacetamide] | – | EC50 [1]: 0.01 to 10 nM |
| CCCCc1nc(O)c(-c2nnc(Cc3noc4ccccc34)o2)c(O)c1-c1ccccc1 [Example 138, 3-[5-(1,2-benzoxazol-3-ylmethyl)-1,3,4-oxadiazol-2-yl]-6-butyl-5-phenylpyridine-2,4-diol] | 10 to 100 nM | – |
| CCCCc1nc(O)c(-c2nnc(CNC(=O)c3ccccc3)o2)c(O)c1-c1cc(C(C)C)ccc1OC [Example 247, N-[(5-{6-butyl-2,4-dihydroxy-5-[2-methoxy-5-(propan-2-yl)phenyl]pyridin-3-yl}-1,3,4-oxadiazol-2-yl)methyl] benzamide] | – | EC50 [3]: 0.01 to 10 nM |
| CCCCc1nc(O)c(-c2nnc(Cc3nc(-c4ccncc4)no3)o2)c(O)c1-c1c(OC)cccc1OC [Example 104, 6-butyl-5-(2,6-dimethoxyphenyl)-3-(5-{[3-(pyridin-4-yl)-1,2,4-oxadiazol-5-yl]methyl}-1,3,4-oxadiazol-2-yl)pyridine-2,4-diol] | 0.01 to 10 nM | – |
| CCCCc1nc(O)c(-c2nnc(Cc3ccc(F)c(F)c3)o2)c(O)c1-c1cccc(OC(F)(F)F)c1 [Example 141, 6-butyl-3-{5-[(3,4-difluorophenyl)methyl]-1,3,4-oxadiazol-2-yl}-5-[3-(trifluoromethoxy)phenyl]pyridine-2,4-diol] | 10 to 100 nM | – |

More lines, main results first:

| EC50 [2] | SMILES | other results |
| --- | --- | --- |
| 10 to 100 nM | CCCCc1nc(O)c(-c2nnc(Cc3c(C)n[nH]c3C)o2)c(O)c1-c1c(OC)cccc1OC [Example 36, 6-butyl-5-(2,6-dimethoxyphenyl)-3-{5-[(3,5-dimethyl-1H-pyrazol-4-yl)methyl]-1,3,4-oxadiazol-2-yl}pyridine-2,4-diol] | – |
| 10 to 100 nM | CCOCc1nc(O)c(-c2nnc(Cc3cnn(C)c3)o2)c(O)c1-c1c(OC)cccc1OC [Example 130, 5-(2,6-dimethoxyphenyl)-6-(ethoxymethyl)-3-{5-[(1-methyl-1H-pyrazol-4-yl)methyl]-1,3,4-oxadiazol-2-yl}pyridine-2,4-diol] | – |
| 10 to 100 nM | CCCCc1nc(O)c(-c2nnc(COc3ccc(F)c(F)c3)o2)c(O)c1-c1c(OC)cccc1OC [Example 76, 6-butyl-3-[5-(3,4-difluorophenoxy-methyl)-1,3,4-oxadiazol-2-yl]-5-(2,6-dimethoxyphenyl) pyridine-2,4-diol] | – |
| 0.01 to 10 nM | CCCCc1nc(O)c(-c2nnc(CCc3ncccn3)o2)c(O)c1-c1c(OC)cccc1OC [Example 81, 6-butyl-5-(2,6-dimethoxyphenyl)-3-{5-[2-(pyrimidin-2-yl)ethyl]-1,3,4-oxadiazol-2-yl}pyridine-2,4-diol] | – |
| 0.01 to 10 nM | CCCCc1nc(O)c(-c2nnc(CC(=O)NCC(F)(F)F)o2)c(O)c1-c1c(OC)cccc1OC [Example 192, 2-{5-[6-butyl-5-(2,6-dimethoxyphenyl)-2,4-dihydroxypyridin-3-yl]-1,3,4-oxadiazol-2-yl}-N-(2,2,2-trifluoroethyl) acetamide] | – |
| 10 to 100 nM | CCCCc1nc(O)c(-c2nnc(Cc3noc4ccccc34)o2)c(O)c1-c1c(OC)ccc(F)c1OC (single isomer, unassigned; isomer 1) [Example 220, 3-[5-(1,2-benzoxazol-3-ylmethyl)-1,3,4-oxadiazol-2-yl]-6-butyl-5-(3-fluoro-2,6-dimethoxyphenyl) pyridine-2,4-diol (isomer 1)] | – |
| 100 to 300 nM | CCCCc1nc(O)c(-c2nnc(-c3ccccc3Cl)o2)c(O)c1-c1c(OC)cccc1OC [Example 11, 6-butyl-3-[5-(2-chlorophenyl)-1,3,4-oxadiazol-2-yl]-5-(2,6-dimethoxyphenyl) pyridine-2,4-diol] | – |
| 0.01 to 10 nM | CCCCc1nc(O)c(-c2nnc(Cc3csc(-c4ccccc4)n3)o2)c(O)c1-c1c(OC)cccc1OC [Example 46, 6-butyl-5-(2,6-dimethoxyphenyl)-3-{5-[(2-phenyl-1,3-thiazol-4-yl)methyl]-1,3,4-oxadiazol-2-yl}pyridine-2,4-diol] | – |
| 0.01 to 10 nM | CCCCc1nc(O)c(-c2nnc(Cc3ccc(Cl)nc3)o2)c(O)c1-c1c(OC)cccc1OC [Example 30, 6-butyl-3-{5-[(6-chloropyridin-3-yl)methyl]-1,3,4-oxadiazol-2-yl}-5-(2,6-dimethoxyphenyl) pyridine-2,4-diol] | – |
| 0.01 to 10 nM | CCCCc1nc(O)c(-c2nnc(CC(=O)N3CC(F)(F)C3)o2)c(O)c1-c1c(OC)cccc1OC [Example 200, 2-{5-[6-butyl-5-(2,6-dimethoxyphenyl)-2,4-dihydroxypyridin-3-yl]-1,3,4-oxadiazol-2-yl}-1-(3,3-difluoroazetidin-1-yl)ethan-1-one] | – |
| 10 to 100 nM | C=CCCc1nc(O)c(-c2nnc(Cc3ccccc3)o2)c(O)c1-c1c(OC)cccc1OC [Example 18, 3-(5-benzyl-1,3,4-oxadiazol-2-yl)-6-(but-3-en-1-yl)-5-(2,6-dimethoxyphenyl) pyridine-2,4-diol] | – |
| 0.01 to 10 nM | COc1cccc(OC)c1-c1c(C2CC2)nc(O)c(-c2nnc(Cc3nc(-c4ccccn4)no3)o2)c1O [Example 95, 6-cyclopropyl-5-(2,6-dimethoxyphenyl)-3-(5-{[3-(pyridin-2-yl)-1,2,4-oxadiazol-5-yl]methyl}-1,3,4-oxadiazol-2-yl)pyridine-2,4-diol] | – |
| 0.01 to 10 nM | CCCCc1nc(O)c(-c2nnc(CC(=O)NC)o2)c(O)c1-c1c(OC)cccc1OC [Example 179, 2-{5-[6-butyl-5-(2,6-dimethoxyphenyl)-2,4-dihydroxypyridin-3-yl]-1,3,4-oxadiazol-2-yl}-N-methylacetamide] | – |
| 0.01 to 10 nM | CCCCc1nc(O)c(-c2nnc(CNC(=O)C(C)(C)C)o2)c(O)c1-c1c(OC)cccc1OC [Example 167, N-({5-[6-butyl-5-(2,6-dimethoxyphenyl)-2,4-dihydroxypyridin-3-yl]-1,3,4-oxadiazol-2-yl}methyl)-2,2-dimethyl-propanamide] | – |
